The target in one experiment is T1, 5-lipoxygenase (Rattus norvegicus, UniProt P12527).
T1 construct: 20,000×g supernatant from 1.5 million homogenized RBL-1 cells; endogenous in cells; host or cells: RBL-1 cells (20,000×g supernatant of homogenate)
T1 sequence (P12527 1-673): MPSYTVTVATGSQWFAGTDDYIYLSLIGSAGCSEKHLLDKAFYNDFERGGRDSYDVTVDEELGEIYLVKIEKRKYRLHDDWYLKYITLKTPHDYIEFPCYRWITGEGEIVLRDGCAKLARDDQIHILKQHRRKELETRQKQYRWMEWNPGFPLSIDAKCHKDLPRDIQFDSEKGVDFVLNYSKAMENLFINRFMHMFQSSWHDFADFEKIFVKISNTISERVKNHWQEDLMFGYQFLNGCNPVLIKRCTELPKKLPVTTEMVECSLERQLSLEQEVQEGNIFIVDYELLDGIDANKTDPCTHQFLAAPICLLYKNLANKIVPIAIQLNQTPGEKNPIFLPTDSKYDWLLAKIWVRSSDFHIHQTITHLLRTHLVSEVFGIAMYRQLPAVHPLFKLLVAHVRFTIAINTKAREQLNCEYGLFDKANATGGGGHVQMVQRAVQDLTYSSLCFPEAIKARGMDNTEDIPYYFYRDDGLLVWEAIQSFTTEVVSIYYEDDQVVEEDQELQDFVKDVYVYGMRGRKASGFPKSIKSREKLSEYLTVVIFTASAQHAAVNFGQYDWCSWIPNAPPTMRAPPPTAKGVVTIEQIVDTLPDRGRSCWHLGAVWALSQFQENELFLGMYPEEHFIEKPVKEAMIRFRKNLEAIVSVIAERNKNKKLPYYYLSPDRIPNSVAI
Put plainly: In vitro inhibition of 5-lipoxygenase (20,000×g supernatant from homogenized RBL-1 cells, radiolabeled arachidonic acid). The experiment is classed as biochemical. To be noted: 20,000×g supernatant of RBL-1 cells; triplicate; read-out: IC50 (in vitro inhibitory potency against 5-lipoxygenase). The protocol: Assays to determine 5-lipoxygenase inhibitory activity were performed in […] incubations containing the 20,000×g supernatant from 1.5 million homogenized RBL-1 cells and various concentrations of the test compound. Reactions were initiated by addition of radiolabeled arachidonic acid and terminated by acidification and ether extraction. Reaction products were separated from nonconverted substrate by thin layer chromatography and measured by liquid scintillation spectroscopy. All incubations were performed in triplicate. Inhibition of 5-lipoxygenase activity was calculated as the ratio of the amount of product formed in the presence and absence of inhibitor. IC50 values (concentration of compound producing 50% enzyme inhibition) were calculated by linear regression analysis of percentage inhibition versus log inhibitor concentration plots. (Dyer, R .D.; Haviv, F.; Hanel, A. M.; Bornemier, D. A.; Carter, G. W. Fed. Proc., Fed. Am. Soc. Exp. Biol. 1984, 43, 1462A).

For the next experiment, the system named is leukotriene biosynthesis. Put plainly: Inhibition of leukotriene biosynthesis in vivo after oral administration, rat peritoneal anaphylaxis model. To be noted: 200 μmol/kg oral (gavage), 1 h before antigen challenge; for inhibition in vivo at 200 µmol/kg: read-out: % Inhibition of Leukotrienes at 200 μmol/kg oral dose. The protocol: Inhibition of the biosynthesis of leukotrienes in vivo after oral administration of representative test compounds of this invention was determined using a rat peritoneal anaphylaxis model in a similar manner as that described by Young and coworkers (Young, P. R.; Dyer, R. D.; Carter, G. W. Fed. Proc., Fed. Am. Soc. Exp. Biol. 1985, 44, 1185). In this model rats were injected intraperitoneally (ip) with rabbit antibody to bovine serum albumin (BSA) and three hours later injected ip with BSA to induce an antgen-antibody response. Rats were sacrificed 15 minutes after this challenge and the peritoneal fluids were collected and analyzed for leukotriene levels. Test compounds were administered by gavage one hour prior to the antigen challenge. Percent inhibition values were determined by comparing the treatment group to the mean of the control group. The results of this assay, for representative compounds of the present invention, at an oral dose level of […] are presented in Table 2, and at an oral dose of […] in Table 3.

SMILES strings stand for the structures.

With `NC(=O)N(O)C[C@@H]1C[C@H]1c1ccccc1` (relative stereo) [Example 4, N-1-(trans-(2-phenylcyclopropyl)methyl)-N-hydroxyurea], the IC50 at 5-lipoxygenase is 1800 nM. For the same compound, in the experiment with leukotriene biosynthesis, the inhibition in vivo at 200 µmol/kg was 97%.
`NC(=O)N(O)C[C@@H]1C[C@H]1c1cccc(Oc2ccccc2)c1` (relative stereo) [Example 10, N-(1-trans-(2-(3-phenoxyphenyl)cyclopropyl)methyl)-N-hydroxyurea]: the IC50 on 5-lipoxygenase was 100 nM. The inhibition in vivo at 200 µmol/kg in the experiment on leukotriene biosynthesis came to 97%.
The like results for `CNC(=O)N(O)C[C@@H]1C[C@H]1c1cccc(Oc2ccccc2)c1` (relative stereo) [Example 11, N-(1-trans-(2-(3-phenoxyphenyl)cyclopropyl)methyl)-N-hydroxy-N'-methylurea] were, in that order, 100 nM and 65%.
As to `NC(=O)N(O)C[C@@H]1C[C@H]1c1cc2ccccc2s1` (relative stereo) [Example 12], the inhibition in vivo at 200 µmol/kg in the experiment with leukotriene biosynthesis came out at 68%.
Same read-out and setting: the result for `CNC(=O)N(O)C[C@@H]1C[C@H]1c1cc2ccccc2s1` (relative stereo) [Example 13] reads 76%.
In the case of `NC(=O)N(O)C[C@H]1C[C@H]1c1ccccc1` (relative stereo) [Example 16, N-(1-cis-(2-phenylcyclopropyl)methyl)-N-hydroxyurea], the IC50 at 5-lipoxygenase worked out at 2800 nM. Further, in the experiment with leukotriene biosynthesis, the inhibition in vivo at 200 µmol/kg came to 61%.
Take `Cc1ccc([C@@H]2C[C@H]2C(C)N(O)C(N)=O)o1` (relative stereo) [Example 26, N-(1-trans-((5-methylfuran-2-yl)cyclopropyl)ethyl)-N-hydroxyurea]: on 5-lipoxygenase, the IC50 worked out at 1100 nM. Also, in the experiment with leukotriene biosynthesis, the “% Inhibition of Leukotrienes at 200 μmol/kg oral dose” value came to 92%.
In the case of `CC(=O)N(O)C[C@@H]1C[C@H]1c1ccccc1` (relative stereo) [Example 27, N-(1-trans-(2-phenylcyclopropyl)methyl)-N-hydroxyacetamide], the IC50 on 5-lipoxygenase was 1700 nM. Also, the inhibition in vivo at 200 µmol/kg in the experiment with leukotriene biosynthesis is 99%.
Take `NC(=O)N(O)C[C@@H]1C[C@H]1CCc1ccccc1` (relative stereo) [Example 33, N-(1-trans-(2-(2-phenylethyl)cyclopropyl)methyl)-N-hydroxyurea]: the inhibition in vivo at 200 µmol/kg with leukotriene biosynthesis was found to be 84%.
On to `NC(=O)N(O)CC[C@@H]1C[C@H]1c1ccccc1` (relative stereo) [Example 34, N-(2-trans-(2-phenylcyclopropyl)ethyl)-N-hydroxyurea], for which the IC50 on 5-lipoxygenase was found to be 300 nM. Further, in the experiment on leukotriene biosynthesis, the inhibition in vivo at 200 µmol/kg came to 100%.
In the case of `NC(=O)N(O)C[C@@H]1C[C@H]1c1ccc(Br)cc1` (relative stereo) [Example 35, N-(1-trans-(2-(4-bromophenyl)cyclopropyl)methyl)-N-hydroxyurea], the inhibition in vivo at 200 µmol/kg in the experiment on leukotriene biosynthesis is 99%.
As for `NC(=O)N(O)C[C@@H]1C[C@H]1c1ccccc1Oc1ccccc1` (relative stereo) [Example 40, N-(1-trans-(2-(2-phenoxyphenyl)cyclopropyl)methyl)-N-hydroxyurea], on 5-lipoxygenase, the IC50 amounted to 200 nM. Also, the inhibition in vivo at 200 µmol/kg with leukotriene biosynthesis came to 97%.
The like results for `Cc1ccc([C@@H]2C[C@H]2CN(O)C(N)=O)cc1` (relative stereo) [Example 47, N-(1-trans-(2-(4-methylphenyl)cyclopropyl)methyl)-N-hydroxyurea] were, in that order, 300 nM and 100%.
In the case of `CC([C@@H]1C[C@H]1c1cc2ccccc2s1)N(O)C(N)=O` (stereo partly drawn) [Example 1, N-(1-trans-(2-(benzo[b]thien-2-yl)cyclopropyl)ethyl)-N-hydroxyurea], in the experiment with leukotriene biosynthesis, the inhibition in vivo at 200 µmol/kg amounted to 62%.
As to `CC([C@@H]1C[C@H]1c1ccccc1)N(O)C(N)=O` (stereo partly drawn) [Example 3, N-(1-trans-(2-phenylcyclopropyl)ethyl)-N-hydroxyurea], on 5-lipoxygenase, the IC50 turned out to be 1600 nM. For the same compound, the inhibition in vivo at 200 µmol/kg with leukotriene biosynthesis was 100%.
Regarding `CC(N(O)C(N)=O)[C@]1(C)C[C@H]1c1ccccc1` (stereo partly drawn) [Example 5, N-(1-trans-(1-methyl-2-phenylcyclopropyl)ethyl)-N-hydroxyurea], the inhibition in vivo at 200 µmol/kg with leukotriene biosynthesis stood at 90%.
As for `CC(C1CC1c1ccccc1)N(O)C(N)=O` (stereo not drawn) [Example 9, N-(1-cis-(2-phenylcyclopropyl)ethyl)-N-hydroxyurea], at 5-lipoxygenase, the IC50 worked out at 1800 nM. Besides, in the experiment with leukotriene biosynthesis, the inhibition in vivo at 200 µmol/kg worked out at 61%.
The like results for `CNC(=O)N(O)C(C)[C@@H]1C[C@H]1c1cccc(Oc2ccccc2)c1` (stereo partly drawn) [Example 17, N-(1-trans-(2-(3-phenoxyphenyl)cyclopropyl)ethyl)-N-hydroxy-N'-methylurea] were, in that order, 70 nM and 81%.
As to `CC(C)Cc1ccc([C@@H]2C[C@H]2C(C)N(O)C(N)=O)cc1` (stereo partly drawn) [Example 19, N-(1-trans-(2-(4-(2-methyl-1-propyl)phenyl)cyclopropyl)-ethyl)-N-hydroxyurea], the inhibition in vivo at 200 µmol/kg with leukotriene biosynthesis came out at 64%.
`COc1ccc([C@@H]2C[C@H]2C(C)N(O)C(N)=O)cc1` (stereo partly drawn) [Example 22, N-(1-trans-(2-(4-methoxyphenyl)cyclopropyl)ethyl)-N-hydroxyurea]: on 5-lipoxygenase, the IC50 is 900 nM. Besides, in the experiment on leukotriene biosynthesis, the inhibition in vivo at 200 µmol/kg is 96%.
The like results for `CC(Oc1ccc([C@@H]2C[C@H]2CN(O)C(N)=O)cc1)c1ccccc1` (stereo partly drawn) [Example 23, N-(1-trans-(2-(4-(1-phenylethoxy)phenyl)cyclopropyl)methyl)-N-hydroxyurea] were, in that order, 100 nM and 93%.
Turning to `CC([C@H]1[C@H](c2ccccc2)C1(C)C)N(O)C(N)=O` (some centres unmarked) [Example 24], at 5-lipoxygenase, the IC50 was 100 nM.
Turning to `CC(Oc1ccc([C@H]2[C@H](CN(O)C(N)=O)C2(C)C)cc1)c1ccccc1` (some centres unmarked) [Example 25], the IC50 at 5-lipoxygenase was 100 nM. In addition, the inhibition in vivo at 200 µmol/kg in the experiment with leukotriene biosynthesis turned out to be 52%.
The like results for `CC(=O)N(O)C(C)[C@@H]1C[C@H]1c1cc2ccccc2s1` (stereo partly drawn) [Example 28, N-(1-trans-(2-(benzo[b]thien-2-yl)cyclopropyl)ethyl)-N-hydroxyacetamide] were, in that order, 100 nM and 73%.
The like results for `COc1ccc([C@@H]2C[C@H]2C(C)N(O)C(C)=O)cc1` (stereo partly drawn) [Example 29, N-(1-trans-(2-(4-methoxyphenyl)cyclopropyl)ethyl)-N-hydroxyacetamide] were, in that order, 900 nM and 96%.
For `CC([C@@H]1C[C@H]1CCc1ccccc1)N(O)C(N)=O` (stereo partly drawn) [Example 32, N-(1-trans-(2(2-phenylethyl)cyclopropyl)ethyl)-N-hydroxyurea], the IC50 on 5-lipoxygenase is 100 nM.
Regarding `CC([C@@H]1C[C@H]1c1ccc(Br)cc1)N(O)C(N)=O` (stereo partly drawn) [Example 37, N-(1-trans-(2-(4-bromophenyl)cyclopropyl)ethyl)-N-hydroxyurea], at 5-lipoxygenase, the IC50 came to 100 nM. Besides, the inhibition in vivo at 200 µmol/kg with leukotriene biosynthesis is 93%.
For `Cc1ccc([C@@H]2C[C@H]2C(C)N(O)C(N)=O)cc1` (stereo partly drawn) [Example 39, N-(1-trans-(2-(4-methylphenyl)cyclopropyl)ethyl)-N-hydroxyurea], in the experiment with leukotriene biosynthesis, the inhibition in vivo at 200 µmol/kg amounted to 82%.
Turning to `CC([C@@H]1C[C@H]1c1ccc2ccccc2c1)N(O)C(N)=O` (stereo partly drawn) [Example 45, N-(1-trans-((2-napthyl)cyclopropyl)ethyl)-N-hydroxyurea], the half-inhibitory concentration (IC50) at 5-lipoxygenase worked out at 300 nM.
On the same count and under the same terms, the result for `CC(=O)N(O)C(C)[C@@H]1C[C@H]1c1ccc2ccccc2c1` (some centres unmarked) [Example 57] reads 300 nM; that for `CC(=O)N(O)C(C)[C@@H]1C[C@H]1c1ccc(C)cc1` (stereo partly drawn) [Example 59, N-(1-trans-(2-(4-methylphenyl)cyclopropyl)ethyl)-N-hydroxyacetamide], 700 nM.
In the case of `CC(C1CC1c1ccco1)N(O)C(N)=O` (stereo not drawn) [Example 65, N-(1-trans-(2-(2-furfuranyl)cyclopropyl)ethyl-N-hydroxyurea], on 5-lipoxygenase, the IC50 amounted to 3600 nM.
